Source: patent US10206907B2, “Compounds useful for the treatment of degenerative and inflammatory diseases” (GALAPAGOS NV, priority 2008, dated 2019)

Legend:
[1] = target: Recombinant human JAK1 catalytic domain (Homo sapiens (Human), UniProt P23458); experiment: JAK1 inhibition assay; type: biochemical; conditions: semi-quantitative score
Summary of the method: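 Radiometric assay read by scintillation counting after phosphoric-acid washes. Percent inhibition calculated from cpm relative to vehicle and 10 μM staurosporine control. IC50 derived from compound dose-dilution series.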

[2] = target: Recombinant human JAK2 catalytic domain (Homo sapiens (Human), UniProt O60674); experiment: JAK2 inhibition assay; type: biochemical; conditions: semi-quantitative score
Summary of the method: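 Radiometric kinase reactions ran for 90 min at 30 °C and were stopped with phosphoric acid, then washed and counted by scintillation. Percent inhibition was set relative to vehicle and to 10 μM staurosporine background. IC50 was derived from dose-dilution series.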

[3] = target: Recombinant human JAK3 catalytic domain (Homo sapiens (Human), UniProt P52333); experiment: JAK3 inhibition assay; type: biochemical; conditions: semi-quantitative score
[4] = system: JAK-STAT signalling in HeLa cells; experiment: JAK-STAT signalling assay (OSM-triggered pSTAT1(2)-luciferase reporter in HeLa cells); type: cell-based; conditions: Homo sapiens; HeLa cells, OSM-triggered pSTAT1(2)-luciferase reporter; read-out: STAT signalling EC50
Summary of the method: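 HeLa cells transiently transfected with pSTAT1(2)-luciferase reporter plus LacZ internal control, incubated overnight at 37 °C, 10% CO2, then OSM-stimulated with compound. Luciferase read by Steadylite luminescence and normalised to β-galactosidase (ONPG); percent inhibition from controls, EC50 from dose-response.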

MMP13 in SW1353 cells = experiment: OSM/IL-1β signaling assay (MMP13 levels in SW1353 cells); type: cell-based; conditions: Homo sapiens; SW1353 cells, OSM and IL-1β triggered, MMP13 levels 48 hours after triggering; read-out: MMP13 EC50;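 note: secreted MMP13 captured by antibody, activated with APMA and its activity read by fluorescence, inhibition scaled between vehicle-treated triggered wells (0%) and untriggered wells (100%)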
TNF-alpha release = experiment: Septic shock model (LPS-induced TNF release); type: in vivo, mouse; conditions: 30 mg/kg po, BALB/cJ mice, LPS ip; statistically significant
Experimental: Injection of lipopolysaccharide (LPS) induces a rapid release of soluble tumour necrosis factor (TNF-alpha) into the periphery. This model is used to analyse prospective blockers of TNF release in vivo.
Six BALB/cJ female mice (20 g) per group were treated at the intended dosing once, po. Thirty minutes later, LPS (15 μg/kg; E. Coli serotype 0111:B4) was injected ip. Ninety minutes later, mice were euthanized and blood was collected. Circulating TNF alpha levels were determined using commercially available ELISA kits. Dexamethasone (5 μg/kg) was used as a reference anti-inflammatory compound. Selected compounds are tested at one or multiple doses, e.g. 3 and/or 10 and/or 30 mg/kg, po.

[5] = Microsomal stability, human liver microsomes; type: in vitro ADME; conditions: percentage of compound remaining after 60 minutes, 3 μM compound
Summary of the method: (§1)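 Compound was incubated with liver microsomes plus an NADP+/glucose-6-phosphate/G6PDH/MgCl2 regenerating system at 37°C for 1 h. Reactions were stopped 1:1 with MeOH or ACN and analysed by LCMS.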

[6] = Microsomal stability, rat liver microsomes; type: in vitro ADME; conditions: percentage of compound remaining after 60 minutes, 3 μM compound
Summary of the method: as §1

[7] = Caco2 permeability (bi-directional); type: in vitro ADME, human; conditions: human, pH 7.4; for Papp A→B at 1 h, 10 µM: Caco-2, apical to basolateral, read-out: Papp (A2B); for efflux ratio at 1 h, 10 µM: Caco-2, ratio of PappB>A/PappA>B
Summary of the method: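 Bidirectional transport across Caco-2 monolayers was run for 1 h at 37 °C with shaking, with 50 μM Lucifer Yellow in the donor to check monolayer integrity (acceptance ≤100 nm/s). Apical and basal compound levels were measured by LC-MS/MS, and efflux ratio was taken as PappB>A/PappA>B.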

[8] = target: Recombinant human TYK2 catalytic domain (Homo sapiens (Human), UniProt P29597); experiment: TYK2 inhibition assay; type: biochemical; conditions: semi-quantitative score
Experimental: After 90 min at 30° C., reactions were stopped by adding of 25 μL/well of 150 mM phosphoric acid. […] Plates were washed 6 times with 300 μL per well of a 75 mM phosphoric acid solution and the bottom of the plates was sealed. 40 μL/well of Microscint-20 was added, the top of the plates was sealed and readout was performed using the Topcount (Perkin Elmer). Kinase activity was calculated by subtracting counts per minute (cpm) obtained in the presence of a positive control inhibitor (10 μM staurosporine) from cpm obtained in the presence of vehicle. The ability of a test compound to inhibit this activity was determined as: Percentage inhibition=((cpm determined for sample with test compound present−cpm determined for sample with positive control inhibitor) divided by (cpm determined in the presence of vehicle−cpm determined for sample with positive control inhibitor))*100%.
Dose dilution series were prepared for the compounds enabling the testing of dose-response effects in the TYK2 assay and the calculation of the IC50 for each compound.

Sequence of Recombinant human TYK2 catalytic domain (P29597 871-1187): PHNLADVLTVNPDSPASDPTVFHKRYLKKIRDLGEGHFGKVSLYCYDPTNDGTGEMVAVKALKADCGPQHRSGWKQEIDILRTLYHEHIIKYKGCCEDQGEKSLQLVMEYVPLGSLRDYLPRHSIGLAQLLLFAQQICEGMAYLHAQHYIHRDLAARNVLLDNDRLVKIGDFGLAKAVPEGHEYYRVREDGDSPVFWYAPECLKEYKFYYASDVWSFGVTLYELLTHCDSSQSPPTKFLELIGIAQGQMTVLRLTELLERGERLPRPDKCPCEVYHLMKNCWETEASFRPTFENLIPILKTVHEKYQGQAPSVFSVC
Sequence of Recombinant human JAK1 catalytic domain (P23458 850-1154): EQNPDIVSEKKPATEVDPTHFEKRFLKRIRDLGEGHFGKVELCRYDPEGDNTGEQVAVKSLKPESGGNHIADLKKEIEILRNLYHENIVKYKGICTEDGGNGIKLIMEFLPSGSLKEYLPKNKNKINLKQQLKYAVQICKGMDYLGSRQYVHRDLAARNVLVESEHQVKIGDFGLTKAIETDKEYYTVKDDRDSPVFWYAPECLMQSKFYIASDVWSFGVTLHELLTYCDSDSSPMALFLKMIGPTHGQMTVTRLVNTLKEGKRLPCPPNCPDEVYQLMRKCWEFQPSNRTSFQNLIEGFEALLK
Sequence of Recombinant human JAK2 catalytic domain (O60674 808-1132): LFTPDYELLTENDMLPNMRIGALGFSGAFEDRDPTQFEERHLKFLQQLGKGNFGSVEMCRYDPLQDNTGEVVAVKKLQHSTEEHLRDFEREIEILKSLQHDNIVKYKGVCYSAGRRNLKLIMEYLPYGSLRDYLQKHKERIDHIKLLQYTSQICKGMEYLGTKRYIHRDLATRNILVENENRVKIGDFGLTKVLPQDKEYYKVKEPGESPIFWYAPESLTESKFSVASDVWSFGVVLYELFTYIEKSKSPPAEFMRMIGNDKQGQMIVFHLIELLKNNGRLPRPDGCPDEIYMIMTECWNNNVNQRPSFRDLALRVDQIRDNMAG
Sequence of Recombinant human JAK3 catalytic domain (P52333 781-1124): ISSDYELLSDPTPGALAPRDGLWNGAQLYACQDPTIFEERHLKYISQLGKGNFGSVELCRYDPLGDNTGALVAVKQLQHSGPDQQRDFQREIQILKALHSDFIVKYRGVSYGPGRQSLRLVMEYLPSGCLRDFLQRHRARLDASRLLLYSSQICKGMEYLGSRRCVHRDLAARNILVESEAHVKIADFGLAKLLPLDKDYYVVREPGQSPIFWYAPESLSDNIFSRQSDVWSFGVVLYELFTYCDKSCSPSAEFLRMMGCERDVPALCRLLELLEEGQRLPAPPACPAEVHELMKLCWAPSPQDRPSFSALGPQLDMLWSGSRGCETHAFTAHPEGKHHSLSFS

SMILES	IC50 [1] [µM]	IC50 [2] [µM]	IC50 [3] [µM]	EC50 [4] [µM]	EC50 (MMP13 in SW1353 cells) [µM]	reduction in the TNF release (TNF-alpha release) [%]	Microsomal Stability Human (%) [5]	Microsomal Stability Rat (%) [6]	Papp A→B at 1 h, 10 µM [7] [×10⁻⁶ cm/s]	efflux ratio at 1 h, 10 µM [7]	IC50 [8] [µM]
O=C(Nc1nc2cccc(-c3ccc(OCc4ccccc4)cc3)n2n1)C1CC1 [Compound 12, N-(5-(4-(benzyloxy)phenyl)-[1,2,4]triazolo[1,5-a]pyridin-2-yl)cyclopropanecarboxamide]	< 0.1	< 0.1	< 0.1	0.101 to 0.5	> 1	> 50	*** (*** 51-75)	**** (**** 76-100)	23.4	0.82	–
O=C(NCCOc1ccccc1)c1ccc(-c2cccc3nc(NC(=O)C4CC4)nn23)cc1 [Compound 60, 4-(2-(cyclopropanecarboxamido)-[1,2,4]triazolo[1,5-a]pyridin-5-yl)-N-(2-phenoxyethyl)benzamide]	< 0.1	< 0.1	0.101 to 0.5	0.101 to 0.5	0.501 to 1	> 50	** (** 26-50)	* (* 0-25)	16.9	2.55	0.501 to 1
O=C(Nc1nc2cccc(-c3ccc(OCc4ccc(-n5cccn5)cc4)cc3)n2n1)C1CC1 [Compound 125]	< 0.1	–	< 0.1	> 1	> 1	> 50	*** (*** 51-75)	**** (**** 76-100)	–	–	–
Cc1ccc(COc2ccc(-c3cccc4nc(NC(=O)C5CC5)nn34)cc2)cn1 [Compound 197, Cyclopropanecarboxylic acid {5-[4-(6-methyl-pyridin-3-ylmethoxy)-phenyl]-[1,2,4]triazolo[1,5-a]pyridin-2-yl}-amide]	< 0.1	< 0.1	–	0.101 to 0.5	> 1	> 50	** (** 26-50)	*** (*** 51-75)	–	–	–
O=C(Nc1nc2cccc(-c3ccc(OCc4cccnc4)cc3)n2n1)C1CC1 [Compound 36, N-(5-(4-(pyridin-3-ylmethoxy)phenyl)-[1,2,4]triazolo[1,5-a]pyridin-2-yl)cyclopropanecarboxamide]	–	–	–	0.101 to 0.5	0.501 to 1	> 50	* (* 0-25)	*** (*** 51-75)	–	0.89	–
O=C(Nc1nc2cccc(-c3ccc(CNc4ccon4)cc3)n2n1)C1CC1 [Compound 302, Cyclopropanecarboxylic acid {5-[4-(isoxazol-3-ylaminomethyl)-phenyl]-[1,2,4]triazolo[1,5-a]pyridin-2-yl}-amide]	< 0.1	< 0.1	0.101 to 0.5	0.101 to 0.5	> 1	–	*** (*** 51-75)	*** (*** 51-75)	8.45	5.98	< 0.1
O=C(Nc1nc2cccc(-c3ccc(CNc4ncccn4)cc3)n2n1)C1CC1 [Compound 229, Cyclopropanecarboxylic acid {5-[4-(pyrimidin-2-ylaminomethyl)-phenyl]-[1,2,4]triazolo[1,5-a]pyridin-2-yl}-amide]	< 0.1	< 0.1	–	0.501 to 1	0.501 to 1	> 50	*** (*** 51-75)	*** (*** 51-75)	25.9	1.6	–
O=C(CCc1ccccc1)Nc1ccc(-c2cccc3nc(NC(=O)C4CC4)nn23)cc1 [Compound 109, N-(5-(4-(3-phenylpropanamido)phenyl)-[1,2,4]triazolo[1,5-a]pyridin-2-yl)cyclopropanecarboxamide]	< 0.1	< 0.1	0.501 to 1	0.501 to 1	0.501 to 1	–	* (* 0-25)	* (* 0-25)	19	2.5	> 1
Cc1cc(COc2ccc(-c3cccc4nc(NC(=O)C5CC5)nn34)cc2)no1 [Compound 52, N-(5-(4-((5-methylisoxazol-3-yl)methoxy)phenyl)-[1,2,4]triazolo[1,5-a]pyridin-2-yl)cyclopropanecarboxamide]	< 0.1	< 0.1	0.501 to 1	0.501 to 1	> 1	> 50	* (* 0-25)	* (* 0-25)	31.8	1.02	0.501 to 1
O=C(Nc1nc2cccc(-c3ccc(C(=O)N4CCC(C(F)(F)F)CC4)cc3)n2n1)C1CC1 [Compound 148, N-(5-(4-(4-(trifluoromethyl)piperidine-1-carbonyl)phenyl)-[1,2,4]triazolo[1,5-a]pyridin-2-yl)cyclopropanecarboxamide]	< 0.1	–	–	> 1	> 1	> 50	*** (*** 51-75)	** (** 26-50)	–	–	–
CC(=O)N(Cc1ccccn1)c1ccc(-c2cccc3nc(NC(=O)C4CC4)nn23)cc1 [Compound 208, Cyclopropanecarboxylic acid {5-[4-(acetyl-pyridin-2-ylmethyl-amino)-phenyl]-[1,2,4]triazolo[1,5-a]pyridin-2-yl}-amide]	< 0.1	< 0.1	–	> 1	> 1	> 50	*** (*** 51-75)	**** (**** 76-100)	–	–	–
O=C(Nc1nc2cccc(-c3ccc(C(=O)N4CCS(=O)(=O)CC4)cc3)n2n1)C1CC1 [Compound 207, Cyclopropanecarboxylic acid {5-[4-(1,1-dioxo-thiomorpholine-4-carbonyl)-phenyl]-[1,2,4]triazolo[1,5-a]pyridin-2-yl}-amide]	< 0.1	< 0.1	–	> 1	> 1	> 50	**** (**** 76-100)	**** (**** 76-100)	0.05	104	–
O=C(Nc1nc2cccc(-c3ccc(OCc4ccccn4)cc3)n2n1)C1CC1 [Compound 37, N-(5-(4-(pyridin-2-ylmethoxy)phenyl)-[1,2,4]triazolo[1,5-a]pyridin-2-yl)cyclopropanecarboxamide]	–	–	–	0.501 to 1	> 1	> 50	*** (*** 51-75)	*** (*** 51-75)	–	–	–
O=C(Nc1nc2cccc(-c3ccc(C(=O)N4CCC(C(=O)c5ccccc5)CC4)cc3)n2n1)C1CC1 [Compound 74, N-(5-(4-(4-benzoylpiperidine-1-carbonyl)phenyl)-[1,2,4]triazolo[1,5-a]pyridin-2-yl)cyclopropanecarboxamide]	< 0.1	0.101 to 0.5	> 1	> 1	> 1	> 50	* (* 0-25)	**** (**** 76-100)	23.3	1.14	–
